Test results published in US6737383B1, “Herbicidal oxadiazolidines” (priority 1999, dated 2004).

Key:
[1] = tested on: corn; test: Test B pre/postemergence corn; type: in vivo, Zea mays
Method in brief: (§1)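 Test chemicals in a non-phytotoxic solvent mixture with surfactant were sprayed preemergence onto planted seeds and postemergence onto plants 2 to 18 cm tall (1- to 4-leaf stage). After twelve to sixteen days in a greenhouse, injury was visually rated against untreated controls from 0 (no effect) to 10 (complete control).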

[2] = tested on: common groundsel; test: Test D common groundsel; type: in vivo, Senecio vulgaris; conditions: Preemergence, 0 to 100 scale
Method in brief: (§2)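 Weed seeds planted in sandy loam; species kept apart in individual pots or compartments. Preemergence tests: treatment to soil surface within one day. Greenhouse growth, then visual injury scoring at 14–21 days (0–100).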

[3] = tested on: Italian ryegrass; test: Test E Italian ryegrass; type: in vivo, Lolium multiflorum; conditions: Preemergence
[4] = tested on: sugar beet; test: Test B pre/postemergence sugar beet; type: in vivo, Beta vulgaris; conditions: for Plant response rating, Sugarbeets: Rate 250 g/ha
Method in brief: as §1

[5] = tested on: green foxtail; test: Test E green foxtail; type: in vivo, Setaria viridis; conditions: Preemergence
[6] = tested on: goosegrass; test: Test D goosegrass; type: in vivo, Eleusine indica; conditions: Preemergence, 0 to 100 scale
Method in brief: as §2

[7] = tested on: surinam grass; test: Test D surinam grass; type: in vivo, Brachiaria decumbens; conditions: Preemergence, 0 to 100 scale
Method in brief: as §2

[8] = tested on: crabgrass; test: Test B pre/postemergence crabgrass; type: in vivo, Digitaria sanguinalis
Method in brief: as §1

[9] = tested on: winter wheat; test: Test E winter wheat; type: in vivo, Triticum aestivum; conditions: Preemergence
[10] = tested on: wild oat; test: Test E wild oat; type: in vivo, Avena fatua; conditions: Preemergence
[11] = tested on: winter barley; test: Test E winter barley; type: in vivo, Hordeum vulgare; conditions: Preemergence
[12] = tested on: pitted morningglory; test: Test D pitted morningglory; type: in vivo, Ipomoea lacunosa; conditions: Preemergence, 0 to 100 scale
Method in brief: as §2

[13] = tested on: purple nutsedge; test: Test D purple nutsedge; type: in vivo, Cyperus rotundus; conditions: Preemergence, 0 to 100 scale
Method in brief: as §2

[14] = tested on: winter wheat; test: Test E winter wheat; type: in vivo, Triticum aestivum; conditions: Postemergence
Method in brief: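 For postemergence, sowings are timed so plants reach the 1- to 4-leaf stage at spraying. Test compound is applied in a surfactant-containing solvent mixture that is non-phytotoxic. Response is judged by eye against untreated controls after approximately 21 to 28 days.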

[15] = tested on: bermuda-grass; test: Test D bermudagrass; type: in vivo, Cynodon dactylon; conditions: Preemergence, 0 to 100 scale
Method in brief: as §2

[16] = tested on: blackgrass; test: Test E blackgrass; type: in vivo, Alopecurus myosuroides; conditions: Preemergence
[17] = tested on: rice; test: Test B flood test rice; type: in vivo, Oryza sativa
Method in brief: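 Plants were grown to the 2-leaf stage before treatment with test chemical, then held in a greenhouse for twelve to sixteen days. Injury was visually rated against untreated controls on a 0–10 scale, where 0 is no effect and 10 is complete control.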

[18] = Postemergence, Rate 125 g/ha, scale of 0 to 10 where 0 is no effect and 10 is complete control
[19] = Postemergence, Rate 250 g/ha, scale 0 to 10, 0 no effect, 10 complete control
[20] = Preemergence, Rate 62 g/ha, scale 0 to 10 (0 no effect, 10 complete control)
[21] = Preemergence, Rate 125 g/ha, scale 0 to 10 (0 no effect, 10 complete control)
[22] = Preemergence, Rate 250 g/ha, scale of 0 to 10 where 0 is no effect and 10 is complete control
[23] = Preemergence, Rate 500 g/ha, scale 0 to 10 (0 no effect, 10 complete control)
[24] = Rate 62 g/ha, Postemergence, scale of 0 to 10 where 0 is no effect and 10 is complete control
[25] = Rate 500 g/ha, Postemergence, scale 0 to 10, 0 no effect, 10 complete control
[26] = Rate 16 g/ha, 0 no injury, 100 complete control
[27] = Rate 32 g/ha, 0 no injury, 100 complete control
[28] = Rate 64 g/ha, 0 no injury, 100 complete control
[29] = Rate 125 g/ha, 0 no injury, 100 complete control
[30] = Rate 62 g/ha, 0 to 100 scale, 0 no effect, 100 complete control
[31] = Rate 125 g/ha, 0 to 100 scale (0 no effect, 100 complete control)
[32] = Rate 500 g/ha, 0 to 100 scale where 0 is no effect and 100 is complete control

## CC(C)N(C(=O)n1oc(=O)n(C(C)C)c1=O)c1ccc(F)cc1F [Compound 109]
[1]; [18]
  Corn plant response rating: 0
[1]; [19]
  Corn plant response rating: 3
[1]; [20]
  Corn plant response rating: 0
[1]; [21]
  Plant response rating, Corn: 3
[1]; [22]
  Plant response rating, Corn: 7
[1]; [23]
  Corn plant response rating: 9
[1]; [24]
  Corn plant response rating: 0
[1]; [25]
  Corn plant response rating: 5
[2]; [26]
  Plant response rating, Com. groundsel: 0
[2]; [27]
  Plant response rating, Com. groundsel: 0
[2]; [28]
  Plant response rating, Com. groundsel: 0
[2]; [29]
  Plant response rating, Com. groundsel: 0
[2]; Rate 250 g/ha
  Plant response rating, Com. groundsel: 0
[2]; Rate 500 g/ha
  Plant response rating, Com. groundsel: 0
[3]; [30]
  Plant response rating, I. Ryegrass: 20
[3]; [31]
  Plant response rating, I. Ryegrass: 100
[3]; Rate 250 g/ha, 0 to 100 scale
  Plant response rating, I. Ryegrass: 100
[3]; [32]
  Plant response rating, I. Ryegrass: 70
[4]; [18]
  Sugarbeets plant response rating: 4
[4]; [20]
  Sugarbeets plant response rating: 8
[4]; Preemergence, Rate 125 g/ha, 0 is no effect, 10 is complete control
  Sugarbeets plant response rating (0 to 10 scale): 10
[4]; Preemergence, scale of 0 to 10 where 0 is no effect and 10 is complete control
  Plant response rating, Sugarbeets: 10
[4]; [23]
  Sugarbeets plant response rating: 10
[4]; [24]
  Sugarbeets plant response rating: 3
[4]; Postemergence, scale 0 to 10, 0 is no effect, 10 is complete control
  Plant response rating, Sugarbeets: 6
[4]; [25]
  Sugarbeets plant response rating: 7
[5]; [30]
  Plant response rating, Green foxtail: 50
[5]; [31]
  Plant response rating, Green foxtail: 85
[5]; Rate 250 g/ha, 0 to 100 scale
  Plant response rating, Green foxtail: 100
[5]; [32]
  Plant response rating, Green foxtail: 85
[6]; [26]
  Plant response rating, Goosegrass: 85
[6]; [27]
  Plant response rating, Goosegrass: 98
[6]; [28]
  Plant response rating, Goosegrass: 100
[6]; [29]
  Plant response rating, Goosegrass: 100
[6]; Rate 250 g/ha
  Plant response rating, Goosegrass: 100
[6]; Rate 500 g/ha
  Plant response rating, Goosegrass: 100
[7]; [26]
  Plant response rating Surinam grass: 0
[7]; [27]
  Plant response rating Surinam grass: 30
[7]; [28]
  Surinam grass plant response rating: 85
[7]; [29]
  Surinam grass plant response rating: 98
[7]; Rate 250 g/ha
  Plant response rating Surinam grass: 100
[7]; Rate 500 g/ha
  Plant response rating Surinam grass: 100
[8]; [18]
  Crabgrass plant response rating: 9
[8]; [19]
  Crabgrass plant response rating: 9
[8]; [20]
  Crabgrass plant response rating: 10
[8]; [21]
  Plant response rating, Crabgrass: 10
[8]; [22]
  Plant response rating, Crabgrass: 10
[8]; [23]
  Crabgrass plant response rating: 10
[8]; [24]
  Crabgrass plant response rating: 8
[8]; [25]
  Crabgrass plant response rating: 9
[9]; [30]
  Plant response rating, Wheat (winter): 20
[9]; [31]
  Plant response rating, Wheat (winter): 30
[9]; Rate 250 g/ha, 0 to 100 scale
  Plant response rating, Wheat (winter): 55
[9]; [32]
  Plant response rating, Wheat (winter): 10
[10]; [30]
  Plant response rating, Wild oat: 20
[10]; [31]
  Plant response rating, Wild oat: 30
[10]; [32]
  Plant response rating, Wild oat: 80
[11]; [30]
  Plant response rating, Barley (winter): 10
[11]; [31]
  Plant response rating, Barley (winter): 10
[11]; Rate 250 g/ha, 0 to 100 scale
  Plant response rating, Barley (winter): 20
[11]; [32]
  Plant response rating, Barley (winter): 5
[12]; [26]
  Plant response rating, P. morninglory: 0
[12]; [27]
  Plant response rating, P. morninglory: 0
[12]; [28]
  Plant response rating, P. morninglory: 0
[12]; [29]
  Plant response rating, P. morninglory: 65
[12]; Rate 250 g/ha
  Plant response rating, P. morninglory: 85
[12]; Rate 500 g/ha
  Plant response rating, P. morninglory: 100
[13]; [26]
  Plant response rating, Purple nutsedge: 0
[13]; [27]
  Plant response rating, Purple nutsedge: 0
[13]; [28]
  Purple nutsedge plant response rating: 40
[13]; [29]
  Purple nutsedge plant response rating: 40
[13]; Rate 250 g/ha
  Plant response rating, Purple nutsedge: 75
[13]; Rate 500 g/ha
  Plant response rating, Purple nutsedge: 85
[14]; Rate 62 g/ha, 0 to 100 scale
  Plant response rating, Wheat (winter): 0
[14]; Rate 125 g/ha, 0 to 100 scale
  Plant response rating, Wheat (winter): 55
[14]; Rate 250 g/ha, 0 to 100 scale (0 no effect, 100 complete control)
  Plant response rating, Wheat (winter): 75
[14]; Rate 500 g/ha, 0 to 100 scale, 0 no effect, 100 complete control
  Plant response rating, Wheat (winter): 0
[15]; [26]
  Plant response rating, Bermudagrass: 98
[15]; [27]
  Plant response rating, Bermudagrass: 100
[15]; [28]
  Plant response rating, Bermudagrass: 100
[15]; [29]
  Plant response rating, Bermudagrass: 100
[15]; Rate 250 g/ha
  Plant response rating, Bermudagrass: 100
[15]; Rate 500 g/ha
  Plant response rating, Bermudagrass: 100
[16]; [30]
  Plant response rating, Blackgrass: 30
[16]; [31]
  Plant response rating, Blackgrass: 65
[16]; Rate 250 g/ha, 0 to 100 scale
  Plant response rating, Blackgrass: 65
[16]; [32]
  Plant response rating, Blackgrass: 90
[17]; Postemergence (flood test species), Rate 125 g/ha, scale of 0 to 10 where 0 is no effect and 10 is complete control
  Rice plant response rating: 0
[17]; Rate 62 g/ha, Postemergence section, flood test species, scale of 0 to 10 where 0 is no effect and 10 is complete control
  Rice plant response rating: 0
[17]; Rate 250 g/ha, Postemergence (flood test), scale 0 to 10, 0 is no effect, 10 is complete control
  Plant response rating, Rice: 0
[17]; Rate 250 g/ha, headed Pre-emergence (flood test species), scale 0 to 10 (0 no effect, 10 complete control)
  Rice plant response rating: 0
[17]; Rate 500 g/ha, headed Pre-emergence (flood test species), scale 0 to 10 (0 no effect, 10 complete control)
  Plant response rating, Rice: 0
[17]; Rate 500 g/ha, listed under Postemergence (flood test species), scale 0 to 10, 0 no effect, 10 complete control
  Rice plant response rating: 0
[17]; Rate 1000 g/ha, Pre-emergence (as headed), scale 0 to 10
  Rice plant response rating: 0
[17]; Rate 2000 g/ha, Pre-emergence (as headed), scale 0 to 10
  Rice plant response rating: 7
